Test results taken from US20240158348A1, “HERBICIDAL CYCLIC AMIDES N-SUBSTITUTED WITH A HALOALKYLSULFONYLANILIDE GROUP” (FMC Corporation, priority 2021, published 2024).

Tests used:
[1] = tested on: ragweed (common ragweed, Ambrosia artemisiifolia); experiment: Test A preemergence, ragweed; format: in vivo; settings: pre-emergence, 240 h, 0 to 100 scale, 10 days, read-out: Plant response rating, Ragweed; for pest or weed control at 31 g/ha: 31 g ai/ha; for pest or weed control at 125 g/ha: 125 g ai/ha
Description: (§1) Seeds of plant species selected from barnyardgrass (Echinochloa crus-galli), blackgrass (Alopecurus myosuroides), corn (Zea mays), foxtail, giant (giant foxtail, Setaria faberi), goosegrass (Eleusine indica), kochia (Bassia scoparia), oat, wild (wild oat, Avena fatua), pigweed, palmer (palmer amaranth, Amaranthus palmeri), pigweed, redroot (redroot pigweed, Amaranthus retroflexus), ragweed (common ragweed, Ambrosia artemisiifolia), ryegrass, Italian (Italian ryegrass, Lolium multiflorum), soybean (Glycine max), and wheat (Triticum aestivum) were planted into a blend of loam soil and sand and treated preemergence with a directed soil spray using test chemicals formulated in a non-phytotoxic solvent mixture which included a surfactant.
(§2) At the same time, plants selected from these crop and weed species and also galium (catchweed bedstraw, Galium aparine) and horseweed (Erigeron canadensis) were planted in pots containing the same blend of loam soil and sand and treated with postemergence applications of test chemicals formulated in the same manner. Plants ranged in height from 2 to 10 cm and were in the one- to two-leaf stage for the postemergence treatment. Treated plants and untreated controls were maintained in a greenhouse for 10 days, after which time all treated plants were compared to untreated controls and visually evaluated for injury. Plant response ratings, summarized in Table A, are based on a 0 to 100 scale where 0 is no effect and 100 is complete control. A dash (-) response means no test result.

[2] = tested on: ducksalad (Heteranthera limosa); experiment: Test B flooded paddy test, ducksalad; format: in vivo; settings: 250 g ai/ha, Flood, scale of 0 to 100 where 0 is no effect and 100 is complete control, visually evaluated after 10 to 14 days, read-out: Plant response rating, Ducksalad
Procedure: (§3) Plant species in the flooded paddy test selected from barnyardgrass (Echinochloa crusgalli), ducksalad (Heteranthera limosa), rice (Oryza sativa), and sedge, umbrella (small-flower umbrella sedge, Cyperus difformis) were grown to the 2-leaf stage for testing. At time of treatment, test pots were flooded to 3 cm above the soil surface, treated by application of test compounds directly to the paddy water, and then maintained at that water depth for the duration of the test. Treated plants and controls were maintained in a greenhouse for 10 to 14 days, after which time all species were compared to controls and visually evaluated. Plant response ratings, summarized in Table B, are based on a scale of 0 to 100 where 0 is no effect and 100 is complete control. A dash (-) response means no test result.

corn (Zea mays) = experiment: Test A postemergence, corn; format: in vivo; settings: post-emergence, 240 h, 0 to 100 scale, 10 days; for Corn plant response rating (crop injury, 0 = no effect, 100 = complete kill) at 31 g/ha: 31 g ai/ha; for Corn plant response rating (crop injury, 0 = no effect, 100 = complete kill) at 125 g/ha: 125 g ai/ha
Description: as §1, §2

[3] = tested on: blackgrass (Alopecurus myosuroides); experiment: Test A postemergence, blackgrass; format: in vivo; settings: 0 to 100 scale, 10 days
Description: as §1, §2

[4] = tested on: oat, wild (wild oat, Avena fatua); experiment: Test A postemergence, wild oat; format: in vivo; settings: 0 to 100 scale, 10 days
Description: as §1, §2

[5] = tested on: barnyardgrass (Echinochloa crusgalli); experiment: Test B flooded paddy test, barnyardgrass; format: in vivo; settings: Echinochloa crus-galli; 250 g ai/ha, Flood; scale of 0 to 100 where 0 is no effect and 100 is complete control; visually evaluated after 10 to 14 days; read-out: Plant response rating, Barnyardgrass
Procedure: as §3

[6] = tested on: goosegrass (Eleusine indica); experiment: Test A postemergence, goosegrass; format: in vivo; settings: 0 to 100 scale, 10 days
Description: as §1, §2

[7] = tested on: goosegrass (Eleusine indica); experiment: Test A preemergence, goosegrass; format: in vivo; settings: 0 to 100 scale, 10 days
Description: as §1, §2

[8] = tested on: wheat (Triticum aestivum); experiment: Test A postemergence, wheat; format: in vivo; settings: post-emergence, 240 h, 0 to 100 scale, 10 days, read-out: Plant response rating, Wheat; for plant injury at 31 g/ha: 31 g ai/ha; for plant injury at 125 g/ha: 125 g ai/ha
Description: as §1, §2

[9] = tested on: wheat (Triticum aestivum); experiment: Test A preemergence, wheat; format: in vivo; settings: 0 to 100 scale, 10 days
Description: as §1, §2

C#CCO/N=C1\CCN(c2cc(NS(=O)(=O)C(F)(F)F)c(C)cc2C)C1=O [Compound 13, N-[2,4-dimethyl-5-[2-oxo-3-[(2-propyn-1-yloxy)imino]-1-pyrrolidinyl]phenyl]-1,1,1-trifluoromethanesulfonamide]
melting point: 175 to 178 °C

Cc1cc(C)c(N2CCC(OC3CCCC3)C2=O)cc1NS(=O)(=O)C(F)(F)F (stereo not shown) [Compound 6, N-[5-[3-(cyclopentyloxy)-2-oxo-1-pyrrolidinyl]-2,4-dimethylphenyl]-1,1,1-trifluoromethanesulfonamide]
pest or weed control at 31 g/ha [1]: 30%
pest or weed control at 125 g/ha [1]: 90%
pest or weed control at 250 g/ha [2]: 85%
Corn plant response rating (crop injury, 0 = no effect, 100 = complete kill) at 31 g/ha (corn (Zea mays)): 0%
Corn plant response rating (crop injury, 0 = no effect, 100 = complete kill) at 125 g/ha (corn (Zea mays)): 90%
Plant response rating, Blackgrass ([3]; 31 g ai/ha): 0
Plant response rating, Blackgrass ([3]; 125 g ai/ha): 40
Plant response rating, Oat, Wild ([4]; 31 g ai/ha): 0
Plant response rating, Oat, Wild ([4]; 125 g ai/ha): 20
pest or weed control at 250 g/ha [5]: 30%
Plant response rating, Goosegrass ([6]; 31 g ai/ha): 80
Plant response rating, Goosegrass ([6]; 125 g ai/ha): 90
Plant response rating, Goosegrass ([7]; 31 g ai/ha): 90
Plant response rating, Goosegrass ([7]; 125 g ai/ha): 100
plant injury at 31 g/ha [8]: 60%
plant injury at 125 g/ha [8]: 60%
Plant response rating, Wheat ([9]; 31 g ai/ha): 80
Plant response rating, Wheat ([9]; 125 g ai/ha): 100

C#CCOC1CCN(c2cc(NS(=O)(=O)C(F)(F)F)c(C)cc2C)C1=O (stereo not shown) [Compound 1, N-[2,4-dimethyl-5-[2-oxo-3-(2-propyn-1-yloxy)-1-pyrrolidinyl]phenyl]-1,1,1-trifluoromethanesulfonamide]
pest or weed control at 31 g/ha [1]: 30%
pest or weed control at 125 g/ha [1]: 90%
pest or weed control at 250 g/ha [2]: 80%
Corn plant response rating (crop injury, 0 = no effect, 100 = complete kill) at 31 g/ha (corn (Zea mays)): 50%
Corn plant response rating (crop injury, 0 = no effect, 100 = complete kill) at 125 g/ha (corn (Zea mays)): 90%
melting point: 164 to 167 °C
Plant response rating, Blackgrass ([3]; 31 g ai/ha): 10
Plant response rating, Blackgrass ([3]; 125 g ai/ha): 50
pest or weed control at 250 g/ha [5]: 60%
plant injury at 31 g/ha [8]: 60%
plant injury at 125 g/ha [8]: 70%

Cc1cc(C)c(N(COC(=O)C(C)(C)C)S(=O)(=O)C(F)(F)F)cc1N1CCC(OC2CCCC2)C1=O (stereo not shown) [Compound 5, [[5-[3-(cyclopentyloxy)-2-oxo-1-pyrrolidinyl]-2,4-dimethylphenyl][(trifluoromethyl)sulfonyl]amino]methyl 2,2-dimethylpropanoate]
pest or weed control at 31 g/ha [1]: 0%
pest or weed control at 125 g/ha [1]: 40%
pest or weed control at 250 g/ha [2]: 95%
Corn plant response rating (crop injury, 0 = no effect, 100 = complete kill) at 31 g/ha (corn (Zea mays)): 0%
Corn plant response rating (crop injury, 0 = no effect, 100 = complete kill) at 125 g/ha (corn (Zea mays)): 80%
Plant response rating, Blackgrass ([3]; 31 g ai/ha): 0
Plant response rating, Blackgrass ([3]; 125 g ai/ha): 0
Plant response rating, Oat, Wild ([4]; 31 g ai/ha): 20
Plant response rating, Oat, Wild ([4]; 125 g ai/ha): 30
pest or weed control at 250 g/ha [5]: 95%
Plant response rating, Goosegrass ([6]; 31 g ai/ha): 50
Plant response rating, Goosegrass ([6]; 125 g ai/ha): 90
Plant response rating, Goosegrass ([7]; 31 g ai/ha): 10
Plant response rating, Goosegrass ([7]; 125 g ai/ha): 90
plant injury at 31 g/ha [8]: 0%
plant injury at 125 g/ha [8]: 50%
Plant response rating, Wheat ([9]; 31 g ai/ha): 0
Plant response rating, Wheat ([9]; 125 g ai/ha): 20

Cc1cc(C)c(N2CC/C(=N\O)C2=O)cc1NS(=O)(=O)C(F)(F)F [Compound 10, 1,1,1-trifluoro-N-[5-[3-(hydroxyimino)-2-oxo-1-pyrrolidinyl]-2,4-dimethylphenyl]methanesulfonamide]
melting point: 213 to 216 °C

C=CCOC1CCN(c2cc(NS(=O)(=O)C(F)(F)F)c(C)cc2C)C1=O (stereo not shown) [Compound 2, N-[2,4-dimethyl-5-[2-oxo-3-(2-propen-1-yloxy)-1-pyrrolidinyl]phenyl]-1,1,1-trifluoromethanesulfonamide]
pest or weed control at 31 g/ha [1]: 20%
pest or weed control at 125 g/ha [1]: 80%
pest or weed control at 250 g/ha [2]: 75%
Corn plant response rating (crop injury, 0 = no effect, 100 = complete kill) at 31 g/ha (corn (Zea mays)): 0%
Corn plant response rating (crop injury, 0 = no effect, 100 = complete kill) at 125 g/ha (corn (Zea mays)): 90%
melting point: 134 to 137 °C
Plant response rating, Blackgrass ([3]; 31 g ai/ha): 20
Plant response rating, Blackgrass ([3]; 125 g ai/ha): 40
pest or weed control at 250 g/ha [5]: 40%
plant injury at 31 g/ha [8]: 70%
plant injury at 125 g/ha [8]: 70%

Cc1cc(C)c(N(COC(=O)C(C)(C)C)S(=O)(=O)C(F)(F)F)cc1N1CCC(OC2CC2)C1=O (stereo not shown) [Compound 7, [[5-[3-(cyclopropyloxy)-2-oxo-1-pyrrolidinyl]-2,4-dimethylphenyl][(trifluoromethyl)sulfonyl]amino]methyl 2,2-dimethylpropanoate]
pest or weed control at 31 g/ha [1]: 30%
pest or weed control at 125 g/ha [1]: 90%
pest or weed control at 250 g/ha [2]: 95%
Corn plant response rating (crop injury, 0 = no effect, 100 = complete kill) at 31 g/ha (corn (Zea mays)): 90%
Corn plant response rating (crop injury, 0 = no effect, 100 = complete kill) at 125 g/ha (corn (Zea mays)): 90%
Plant response rating, Blackgrass ([3]; 31 g ai/ha): 20
Plant response rating, Blackgrass ([3]; 125 g ai/ha): 50
Plant response rating, Oat, Wild ([4]; 31 g ai/ha): 30
Plant response rating, Oat, Wild ([4]; 125 g ai/ha): 70
pest or weed control at 250 g/ha [5]: 98%
Plant response rating, Goosegrass ([6]; 31 g ai/ha): 90
Plant response rating, Goosegrass ([6]; 125 g ai/ha): 90
Plant response rating, Goosegrass ([7]; 31 g ai/ha): 80
Plant response rating, Goosegrass ([7]; 125 g ai/ha): 100
plant injury at 31 g/ha [8]: 30%
plant injury at 125 g/ha [8]: 60%
Plant response rating, Wheat ([9]; 31 g ai/ha): 0
Plant response rating, Wheat ([9]; 125 g ai/ha): 80

CO/N=C1\CCN(c2cc(NS(=O)(=O)C(F)(F)F)c(C)cc2C)C1=O [Compound 9, 1,1,1-trifluoro-N-[5-[3-(methoxyimino)-2-oxo-1-pyrrolidinyl]-2,4-dimethylphenyl]methanesulfonamide]
melting point: 226 to 229 °C

Cc1cc(C)c(N(COC(=O)C(C)(C)C)S(=O)(=O)C(F)(F)F)cc1N1CCC(OC2CCC2)C1=O (stereo not shown) [Compound 8, [[5-[3-(cyclobutyloxy)-2-oxo-1-pyrrolidinyl]-2,4-dimethylphenyl][(trifluoromethyl)sulfonyl]amino]methyl 2,2-dimethylpropanoate]
pest or weed control at 31 g/ha [1]: 20%
pest or weed control at 125 g/ha [1]: 90%
pest or weed control at 250 g/ha [2]: 95%
Corn plant response rating (crop injury, 0 = no effect, 100 = complete kill) at 31 g/ha (corn (Zea mays)): 30%
Corn plant response rating (crop injury, 0 = no effect, 100 = complete kill) at 125 g/ha (corn (Zea mays)): 80%
Plant response rating, Blackgrass ([3]; 31 g ai/ha): 30
Plant response rating, Blackgrass ([3]; 125 g ai/ha): 40
Plant response rating, Oat, Wild ([4]; 31 g ai/ha): 10
Plant response rating, Oat, Wild ([4]; 125 g ai/ha): 30
pest or weed control at 250 g/ha [5]: 98%
Plant response rating, Goosegrass ([6]; 31 g ai/ha): 80
Plant response rating, Goosegrass ([6]; 125 g ai/ha): 90
Plant response rating, Goosegrass ([7]; 31 g ai/ha): 70
Plant response rating, Goosegrass ([7]; 125 g ai/ha): 100
plant injury at 31 g/ha [8]: 60%
plant injury at 125 g/ha [8]: 70%
Plant response rating, Wheat ([9]; 31 g ai/ha): 0
Plant response rating, Wheat ([9]; 125 g ai/ha): 50
